This note sets out measurements from PMC12894115, “Discovery and Functional Characterization of SnFDHal, an Efficient Tryptophan 5-Halogenase from Streptomyces noursei” (Applied Biochemistry and Biotechnology, 2025).

The subject of this assay is T1, SnFDHal.
T1 construct: full-length 1,551 bp gene (about 516 residues) cloned from genomic DNA, pET28a NdeI/XhoI, His6-tagged, E. coli BL21(DE3), Ni-NTA; residues F49, K75, I78, H92, F94, Q187, E359, S460
Kind of assay: HPLC chlorination assay, Michaelis-Menten fit. Type of assay: biochemical, Streptomyces noursei. The settings on record: NADH, FAD, E. coli Fre reductase (FADH2 regeneration), NaCl; 100 mM phosphate pH 6.0, 35 °C, 30 min. The source says: HPLC chlorination assay, Michaelis-Menten fit on SnFDHal

A word on the Km: it is the concentration of substrate that gives half-maximal velocity. As for `N[C@@H](Cc1c[nH]c2c(Cl)cccc12)C(=O)O` [7-Cl-Trp, 7-chlorotryptophan], the Km was determined as 172 µM.
On to `N[C@@H](Cc1c[nH]c2cc(Cl)ccc12)C(=O)O` [6-Cl-Trp, 6-chlorotryptophan], for which the Km was 945 µM.
For `N[C@@H](Cc1c[nH]c2ccccc12)C(=O)O` [L-Trp, L-tryptophan] the value was 622 µM.
